Data: patent US20120136003A1, “COMPOUNDS, COMPOSITIONS AND METHODS COMPRISING 1,3,4-OXADIAZOLE DERIVATIVES” (Institute For Oneworld Health, priority 2009, published 2012)

Assays:
[1] = test system: mice (CD1 strain), intestinal loops with cholera toxin (CTX); details: mouse, in vivo
[2] = biological target: T1, CFTR (Homo sapiens, UniProt P13569); experiment: T84 assay (FLIPR membrane potential); assay type: cell-based; design: Human colonic T84 cells are acquired from the European Collection of Cell Cultures (ECACC); host or cells: T84 human colonic cells
Experimental: (§1) For example, Human colonic T84 cells can be acquired from the European Collection of Cell Cultures (ECACC) and grown in standard culture conditions as described by the supplier. On the day before assay 25,000 T84 cells per well are plated into standard black walled, clear bottom 384-well assay plates in standard growth medium consisting of DMEM:F12 with 10% FBS and incubated overnight. On the day of the assay the plates are washed using a standard assay buffer (HBSS with 10 mM Hepes) and incubated for 15 minutes in serum free cell culture medium before the addition of a commercially available membrane potential sensitive fluorescent dye (FLIPR Red membrane potential dye, Molecular Devices Corporation). T84 cells are incubated with the FLIPR Red membrane potential dye for 45 minutes in the presence and absence of test compound before being transferred to a commercially available fluorescence imaging plate reader (FLIPR384, Molecular Devices Corporation). Fluorescence levels are monitored continuously every second for 150 seconds; after an initial 10 second baseline, CFTR channel activity is stimulated through the addition of 10 μM forskolin in the presence of 100 μM of the phosphodiesterase inhibitor iso-butyl-methylxanthine (IBMX). Addition of the forskolin leads to the activation of intracellular adenylyl cylase 1, elevating cAMP levels and results in the phosphorylation and opening of CFTR anion channels. CFTR channel opening causes chloride ion efflux and subsequent depolarization of the cells, which is measured by an increase in fluorescence. CFTR inhibitor compounds prevent cell depolarization and the associated increase in fluorescence.
as §1, with “Human colonic” for “For example, Human colonic”, “T84 cells are acquired from” for “T84 cells can be acquired from”, “(ECACC) and are grown in” for “(ECACC) and grown in”, “with 10 Mm Hepes) and” for “with 10 mM Hepes) and”, “1, elevating Camp levels and” for “1, elevating cAMP levels and”
Target sequence in this assay (P13569 whole entry): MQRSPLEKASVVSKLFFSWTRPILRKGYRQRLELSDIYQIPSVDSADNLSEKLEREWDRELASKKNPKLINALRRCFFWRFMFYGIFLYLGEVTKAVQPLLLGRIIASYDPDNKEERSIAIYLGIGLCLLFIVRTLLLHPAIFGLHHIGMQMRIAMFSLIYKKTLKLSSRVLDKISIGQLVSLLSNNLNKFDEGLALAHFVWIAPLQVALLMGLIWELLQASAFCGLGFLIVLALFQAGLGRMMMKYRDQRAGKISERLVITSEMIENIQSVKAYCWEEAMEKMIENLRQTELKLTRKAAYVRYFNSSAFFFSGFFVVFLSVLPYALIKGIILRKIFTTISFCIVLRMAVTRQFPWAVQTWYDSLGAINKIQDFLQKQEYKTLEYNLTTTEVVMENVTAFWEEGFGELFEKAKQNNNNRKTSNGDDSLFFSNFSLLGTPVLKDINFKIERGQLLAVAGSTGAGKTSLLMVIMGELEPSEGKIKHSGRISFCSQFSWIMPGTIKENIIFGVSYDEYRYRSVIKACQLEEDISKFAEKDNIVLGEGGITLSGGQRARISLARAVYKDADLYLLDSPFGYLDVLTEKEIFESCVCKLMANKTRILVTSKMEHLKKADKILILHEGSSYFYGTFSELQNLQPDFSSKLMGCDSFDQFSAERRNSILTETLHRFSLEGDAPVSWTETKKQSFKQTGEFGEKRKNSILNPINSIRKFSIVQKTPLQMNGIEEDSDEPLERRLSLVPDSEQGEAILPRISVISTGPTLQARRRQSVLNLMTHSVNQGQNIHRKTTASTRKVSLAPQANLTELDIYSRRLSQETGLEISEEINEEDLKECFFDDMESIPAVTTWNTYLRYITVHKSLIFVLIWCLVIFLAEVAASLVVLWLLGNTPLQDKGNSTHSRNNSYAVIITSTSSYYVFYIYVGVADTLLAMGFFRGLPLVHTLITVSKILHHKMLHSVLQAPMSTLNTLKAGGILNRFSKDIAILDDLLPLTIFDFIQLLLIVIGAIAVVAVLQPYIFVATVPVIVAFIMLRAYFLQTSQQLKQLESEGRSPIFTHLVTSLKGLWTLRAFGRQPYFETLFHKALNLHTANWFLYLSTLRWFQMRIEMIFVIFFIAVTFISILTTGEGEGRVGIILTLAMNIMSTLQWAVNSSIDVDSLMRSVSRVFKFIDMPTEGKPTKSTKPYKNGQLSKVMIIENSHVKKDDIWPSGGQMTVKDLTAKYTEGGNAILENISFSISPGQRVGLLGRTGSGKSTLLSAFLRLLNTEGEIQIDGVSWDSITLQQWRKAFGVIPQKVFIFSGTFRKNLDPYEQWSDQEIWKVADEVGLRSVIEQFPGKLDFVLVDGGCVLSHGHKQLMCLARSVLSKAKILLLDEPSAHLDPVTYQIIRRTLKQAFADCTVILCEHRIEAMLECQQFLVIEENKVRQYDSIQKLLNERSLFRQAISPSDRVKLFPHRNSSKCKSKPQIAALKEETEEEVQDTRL

[3] = biological target: T1, CFTR; experiment: CHO-CFTR IonWorks Quattro (IWQ) population patch clamp; assay type: cell-based; design: expressed in transfected cells; host or cells: CHO-K1 cells, stably transfected; details: @-60 mV; room temperature
Experimental: Currents were recorded at room temperature (21-23° C.) using IonWorks® Quattro™ (Molecular Devices, Inc) Population Patch Clamp (PPC) mode automated electrophysiology recording techniques.
Before recording commenced, a T175 culture flask containing CHO-K^1 cells stably transfected with the CFTR gene were washed with 10 ml of Dulbecco's phosphate buffered saline (without Ca^2+ or Mg^2+) followed by addition of 1 ml of 0.05% Trypsin EDTA (Invitrogen, cat no. 25300054) to the flask. After 1-2 minutes incubation, flasks were gently tapped to lift the cells from the substrate and 10 ml of complete media added. Cells were spun at 1,000 rpm for 3 minutes, followed by re-suspension of the pellet in external buffer and use of the resulting cell suspension at a density of 2×10^6 cells per ml. The external solution used for recording was Dulbecco's phosphate buffered saline (Invitrogen, cat no. 14040091) and contained (in mM) 137.9 NaCl, 2.7 KCl, 0.901 CaCl2, 0.5 MgCl2.6H2O, 1.5 KH2PO4, 8.1 Na2HPO4.7H2O. The internal solution contained the following (in mM): 10 NaCl (Sigma, cat no. S7653), 90 KGluconate (Sigma, cat no. G4500), 30 KF (Sigma, cat no. 60238), 1 MgCl2 (Fluka, cat no. 63020), 5 EGTA (Sigma, cat no. E3889), 10 HEPES (Sigma, cat no. H3375); pH 7.4 with KOH. […]
Target sequence in this assay (P13569 whole entry, species assumed): as the sequence (P13569 whole entry) above

[4] = biological target: T1, CFTR; experiment: CHO-CFTR assay (FLIPR assay); assay type: cell-based; design: expressed in transfected cells; host or cells: CHO-K1 cells, stably transfected; details: same assay conditions (FLIPR assay); read-out: IC50 value in the CHO-CFTR cell line
Target sequence in this assay (P13569 whole entry, species assumed): as the sequence (P13569 whole entry) above

Compound: O=C(c1nnc(-c2cc(Cl)c(O)c(Cl)c2)o1)N1CCN(c2cccc(C(F)(F)F)c2)CC1 [Compound 4, (5-(3,5-dichloro-4-hydroxyphenyl)-1,3,4-oxadiazol-2-yl)(4-(3-(trifluoromethyl)phenyl)piperazin-1-yl)methanone]
- closed loop % inhibition [1]: 92.5%
- IC50 [2]: 16.9 µM
- IC50 [3]: 4.71 µM
- IC50 [4]: 10.6 µM
